Experimental findings from PubChem BioAssay (NCI) are described below.

The structures appear in SMILES notation. Several values for one entry are separate records, joined by “and”; a condition that tells them apart may be missing. Equal entries are not always repeated.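 All cell lines were grown in 96-well plates and treated with compound for 48 hours. GI50: concentration for 50% inhibition of growth. TGI: concentration producing complete growth inhibition.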 Where only a bound is given, the exact number is not on record here.

Common to all, as to experiment: NCI tumour cell line growth inhibition, 48 h
For assay [1], the system named is LXFL 529 NSCLC.
The subject of assay [2] is HOP-18 NSCLC.
The test system of assay [3] is XF 498 CNS.
For assay [4], the system named is DMS 114 small cell lung.
Assay [5] concerns SNB-78 CNS.
Assay [6] concerns SN12K1 renal.
Assay [7] concerns P388/ADR leukemia.
In assay [8] the test system is P388 leukemia.
For assay [9], the system named is RXF-631 renal.

As to `CC(C)(C1=NC(C(C)(C)C)CO1)C1=N[C@@H](C(C)(C)C)CO1` (stereo partly specified), the TGI in assay [1], in assay [2], in assay [3] and in assay [4] was over 100 µM in each case.
`Cc1c2cc[n+](C)cc2c(C)c2c1[nH]c1ccc(OCC(F)(F)F)cc12`: the TGI is 6.5 µM in [1]; 23.4 µM and > 100 µM in assay [2]; over 100 µM in assay [5]; over 21.6 µM in assay [4].
With `CSCSCC(CO)NC(=O)/C=C\c1c(C)[nH]c(=O)[nH]c1=O` (stereo unspecified), the TGI was 84.9 µM in assay [6]; 332 µM in [7]; 164 µM in [8]; 267 µM in assay [2]; 9.99 µM in [3]; 260 µM in [5]. This molecule also registered a TGI in [4] of 66.5 µM. Further, the GI50 in assay [5] was 30.9 µM.
`c1ccc(C2N=C(c3ccccn3)C(c3ccccn3)=NC2c2ccccc2)cc1` (stereo unspecified): the TGI in [1], in [2], in assay [3], in [5] and in [4] was over 100 µM each time.
Regarding `COC(=O)c1c(CC(=O)OC(C)C)cc2n(c1=O)Cc1c-2nc2ccccc2c1OC`, the TGI in [1], in assay [2], in assay [3] and in assay [4] was over 100 µM each time.
With `CCN(CC)CC[n+]1ccc2c(C)c3[nH]c4ccccc4c3c(C)c2c1`, the GI50 in assay [6] is 0.268 µM; in assay [8], 0.0448 µM and 0.024 µM; in assay [2], 0.901 µM and 1.91 µM; in assay [5], 0.293 µM and 1.17 µM. In addition, the TGI in [6] is 1.18 µM and 1.8 µM; in assay [7] it was > 100 µM and 125 µM; in [8], 1.41 µM and 4.27 µM; in assay [2], 4.82 µM and 7.88 µM; in assay [5] it was 1.49 µM and 7.14 µM.
As to `N/C(=N\N=C/c1c(O)cc(O)cc1O)NO`, the TGI in [6], in [7], in assay [8], in assay [2], in assay [5] and in assay [4] was over 100 µM in each case.
As to `O=c1[nH]c(=S)[nH]c2c1CCCN2`, the TGI in assay [1], in assay [9], in assay [2], in assay [5] and in assay [4] was over 100 µM in each case.
For `Cc1ccc(N2Cc3c(ccc4ccccc34)OP2(=S)N2CCCC2)cc1` (stereo unspecified), the TGI in assay [6] was over 100 µM; in assay [7] it was over 100 µM; in assay [8], 47.9 µM; in assay [2], over 100 µM; in [3], over 100 µM; in assay [5], over 100 µM.
In the case of `O=Cn1c2ccccc2c2ccccc21`, the TGI in [1], in assay [2], in [3], in assay [5] and in assay [4] was over 100 µM throughout.
On to `CCCCn1c(-c2ccccc2)cs/c1=N\NC(=O)Cn1c(C)nc2ccccc21`, for which the TGI in assay [1], in assay [2], in assay [3] and in [5] was over 100 µM in each case.
Take `CC(C)=CC(=O)OC1C2C(C)=CC(=O)C(O)C2(C)C2C3(O)OCC24C(CC(=O)OC14)C(C)C3O` (stereo unspecified): the GI50 in assay [6] was 0.00412 µM; in [7] it was 0.181 µM; in [2] it was 0.192 µM and 0.0777 µM; in assay [3] it was 0.00543 µM; in [5] it was 0.0575 µM. The TGI in assay [6] was 0.0169 µM and 0.0213 µM; in assay [7], 0.575 µM and 0.84 µM; in [8], 0.00568 µM; in [2] it was 0.689 µM and 0.493 µM; in assay [3], 0.0217 µM and 0.0556 µM; in assay [5] it was 0.36 µM and 0.153 µM.
On to `O=c1cc(-c2ccccc2)oc2cc(OCCCCCCCCCCOc3ccc4c(=O)cc(-c5ccccc5)oc4c3)ccc12`, for which the TGI in assay [1], in assay [9], in assay [2], in [3], in assay [5] and in assay [4] was over 100 µM each time.
In the case of `C/C(=N/NC(N)=S)C(CN1CCOCC1)C(C1=C(O)c2ccccc2OC1)c1ccccc1` (stereo unspecified), the TGI in [1], in [2], in assay [3] and in assay [5] was over 100 µM in each case.
